Test results published in the supplement of paper PMC7840683.
± gives the standard deviation of the averaged measurements.

Test system: HepaRG
Assay: LDH release cytotoxicity, % of total lysis control; higher = more cytotoxic
Details: 48 h
Procedure, shortened: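 The CytoTox-ONE kit was used to read LDH in 50 µL spent medium as resorufin fluorescence on a Tecan Safire, with 0.1% Triton X added to total lysis wells. Beforehand, single-lot HepaRG cells on collagen I-coated 96-well plates had been exposed in duplicate for 48 h to eight-point half-log series (top 100 µM) in serum-free induction medium containing 0.5% DMSO. Percent cytotoxicity was normalized against on-plate vehicle and total lysis controls and averaged over duplicates.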

Compound	LDH release cytotoxicity (0.03162 µM)	LDH release cytotoxicity (0.1 µM)	LDH release cytotoxicity (0.3162278 µM)	LDH release cytotoxicity (1 µM)	LDH release cytotoxicity (3.16228 µM)	LDH release cytotoxicity (10 µM)	LDH release cytotoxicity (31.6228 µM)	LDH release cytotoxicity (100 µM)	LDH release cytotoxicity (0.03115 µM)	LDH release cytotoxicity (0.0985 µM)	LDH release cytotoxicity (0.311484 µM)	LDH release cytotoxicity (0.985 µM)	LDH release cytotoxicity (3.11484 µM)	LDH release cytotoxicity (9.85 µM)	LDH release cytotoxicity (31.1484 µM)	LDH release cytotoxicity (98.5 µM)
COc1ccc2sc(C(=O)Nc3nnn[nH]3)c(OC(C)C)c2c1 [CI-959]	-0.617 ± 0.98%	-2.08 ± 0.33%	-1.65 ± 0.028%	-1.45 ± 0.29%	-2.51 ± 0.029%	-2.33 ± 0.67%	3.57 ± 1.1%	9.3 ± 1.3%								
Cc1cc2c3c(c1)C(c1ccccc1)=NC(NC(=O)c1ccncc1)C(=O)N3CC2 (centres undefined) [CI-1018]	-1.91 ± 0.18%	-1.63 ± 0.47%	-1.51 ± 1.7%	-2.27 ± 0.065%	-1.93 ± 0.3%	-1.89 ± 0.24%	-2.24 ± 0.049%	5.94 ± 0.8%								
Cc1cc(SC2C(=O)CC(CCc3ccc(N)cc3)(C(C)C)OC2=O)c(C(C)(C)C)cc1CO (centres undefined) [CI-1029]	-0.634 ± 0.8%	-3.84 ± 0.53%	-3.74 ± 0.38%	-3.966 ± 0.027%	-4.19 ± 0.59%	-3.49 ± 0.12%	-3.96 ± 0.73%	-2.25 ± 0.55%								
Nc1cc2c3c(c1)C(c1ccccc1)=NC(NC(=O)c1cccnc1)C(=O)N3CC2 (centres undefined) [CI-1044]	-1.32 ± 0.016%	-0.234 ± 0.4%	-1.37 ± 0.23%	-0.0936 ± 0.47%	-0.301 ± 0.14%	0.515 ± 1.5%	0.683 ± 0.68%	0.815 ± 1.6%								
Cn1c(=O)c2c(ncn2C)n(C)c1=O [Caffeine]	-1.5 ± 0.32%	-0.664 ± 0.51%	-1.14 ± 0.54%	-0.9619 ± 0.0096%	-1.02 ± 0.75%	-0.778 ± 0.5%	-0.135 ± 0.4%	1.03 ± 1.2%								
COCCOCC(CC1(C(=O)NC2CCC(C(=O)O)CC2)CCCC1)C(=O)Oc1ccc2c(c1)CCC2 (centres undefined) [Candoxatril]	-0.831 ± 0.098%	-1.91 ± 0.43%	-0.642 ± 0.1%	-1.61 ± 0.11%	-1.03 ± 0.12%	-0.79 ± 0.29%	-0.798 ± 0.39%	0.54 ± 0.26%								
O=C1CCCCCN1 [Caprolactam]	-0.496 ± 0.65%	-1.92 ± 0.24%	-1.76 ± 0.37%	-0.953 ± 0.14%	-0.455 ± 0.46%	-0.823 ± 0.29%	-0.101 ± 0.44%	1.84 ± 0.57%								
O=C1C2CC=CCC2C(=O)N1SC(Cl)(Cl)Cl (centres undefined) [Captan]									-0.761 ± 0.69%	-0.69 ± 1%	-1.02 ± 0.74%	-1.31 ± 0.14%	-1.78 ± 0.61%	-0.651 ± 0.36%	0.632 ± 0.25%	27.6 ± 5.5%
